# How the values were obtained:
# [1] = test system: Candidal vaginitis; assay: Therapeutic effect of gel compositions on Candidal vaginitis (clinical cases); type: in vivo, patients; details: cases/cases of group
# From the text: 1. Experimental Object: observing the therapeutic effect of the compositions comprising the combination of sodium benzoate with sodium propionate or sorbic acid. Unless otherwise illustrated, the solutions in the experiments are all aqueous solutions.
# • Group I: 0.125% (w/v) sodium propionate; • Group II: i.e., the composition of Example 9 comprising 0.1% (w/v) sodium benzoate+0.125% (w/v) sodium propionate; • Group III: 0.0125% (w/v) sorbic acid; • Group IV: i.e., the composition of Example 7 comprising 0.1% (w/v) sodium benzoate+0.0125% (w/v) sorbic acid; • Group V: 0.1% (w/v) sodium benzoate; • Group VI: i.e., the composition of Example 5 comprising 0.1% sodium benzoate+0.0125% sodium dehydroacetate. 3. Experimental cases: cases of Candidal vaginitis, 20 cases per group, enrolling according to following criteria: recurrent symptoms such as vulvovaginal pruritus and vulvovaginal burning pain, and increased leucorrhea, optionally with white bean curd slag-like clots, pH value of vaginal secretion <4.5, vaginal bacteria were dominated by large Gram-positive rods, and Candida spores and/or hypha were found. 4. […] 5. […] 6. Observed results: observing the changes in vulvovaginal pruritus, vulvovaginal burning pain and leucorrhea nature, the pH value of vaginal secretion, observing the Nugent scores of the vaginal flora, whether Candida grew or not. 7. […] 8.
# [2] = test system: Candida strains (clinical isolates from patients suffering from Candidal vaginitis); assay: Inhibition of Candida growth in broth pH 4.5 (turbidity after 72 hours); type: cell-based; details: for Candida growth, Strain 1: Strain 1, 37.5° C.; for Candida growth, Strain 2: Strain 2, 37.5° C.; for Candida growth, Strain 3: Strain 3, 37.5° C.; for Candida growth, Strain 4: Strain 4, 37.5° C.; for Candida growth, Strain 5: Strain 5, 37.5° C.; for Candida growth, Strain 6: Strain 6, 37.5° C.; for Candida growth, Strain 7: Strain 7, 37.5° C.; for Candida growth, Strain 8: Strain 8, 37.5° C.; for Candida growth, Strain 9: Strain 9, 37.5° C.; for Candida growth, Strain 10: Strain 10, 37.5° C.; for Candida growth, Strain 11: Strain 11, 37.5° C.
# From the text: 1. […] Unless otherwise illustrated, the solutions in the experiments are all aqueous solutions. 2. Experimental Method: (1) Experimental Materials:
# a) Experimental strains: 11 Candida strains, all of which were screened from the clinical isolates from patients suffering from Candidal vaginitis, and were capable of growing in broth comprising 0.025% (w/v) sodium benzoate.
# b) Broth: 1% yeast extract powder, 9% sucrose, 0.025% Manganese sulfate (MnSO4.4H2O), 0.058% Magnesium sulphate (MgSO4.7H2O), and 0.9% lactic acid, wherein the pH value was adjusted to 4.5 and the broth was sterilized for use;
# (2) Experimental Grouping:
# The requirements for aseptic technique were strictly followed to prepare the following groups of sterile test tubes: • a) sodium benzoate group: a test tube containing 5 ml broth, to which 0.025% (w/v) sodium benzoate was added; • b) sodium benzoate+sodium dehydroacetate group: 6 test tubes each containing 5 ml broth, wherein 0.0025% (w/v), 0.005% (w/v), and 0.01% (w/v) sodium dehydroacetate were added to three tubes, respectively; 0.025% (w/v) sodium benzoate was added to each of the rest 3 tubes, and then 0.0025% (w/v), 0.005% (w/v), 0.01% (w/v) sodium dehydroacetate were added to them, respectively; • c) sodium benzoate+sodium propionate group: 6 test tubes each containing 5 ml broth, wherein 0.0625% (w/v), 0.125% (w/v), and 0.25% (w/v) sodium propionate were added to three tubes, respectively; 0.025% (w/v) sodium benzoate was added to each of the rest 3 tubes, and then 0.0625% (w/v), 0.125% (w/v), and 0.25% (w/v) sodium propionate were added to them, respectively; • d) sodium benzoate+potassium sorbate group: 6 test tubes each containing 5 ml broth, wherein 0.00625% (w/v), 0.0125% (w/v), and 0.025% (w/v) potassium sorbate were added to 3 tubes, respectively; 0.025% (w/v) sodium benzoate was added to each of the rest 3 tubes, and then 0.00625% (w/v), 0.0125% (w/v), and 0.025% (w/v) potassium sorbate were added to them, respectively; • e) sodium benzoate+Ethylparaben: 6 test tubes each containing 5 ml broth, wherein 0.0125% (w/v), 0.025% (w/v), and 0.05% (w/v) Ethylparaben were added to 3 tubes, respectively; 0.025% (w/v) sodium benzoate was added to each of the rest 3 tubes, and then 0.0125% (w/v), 0.025% (w/v), and 0.05% (w/v) Ethylparaben were added to them, respectively; • f) Positive control: a broth-containing test tube with Candida but without sodium benzoate, sodium dehydroacetate, sodium propionate, sorbic acid, or Ethylparaben. • g) Negative control: a broth-containing test tube without Candida, sodium benzoate, sodium dehydroacetate, sodium propionate, sorbic acid, or Ethylparaben; (3) Experimental Methods:
# The Candidal suspensions were prepared under stringent aseptic manipulation techniques. The colonies of various Candidal strains were diluted with saline, respectively. The turbidity was adjusted with a turbiditor to 0.5M (about 10^8CFU/ml), and then 1 ml 0.5M bacterial solution was added to 9 ml broth and was 10 times diluted, so that each Candidal suspension comprised Candidal organisms at 10^7CFU/ml.
# Under stringent aseptic manipulation techniques, 100 μl bacterial solution thus prepared was added to each of the aforesaid a˜f test tubes and the positive control tube, and no bacterial solution was added to the negative control tube g.
# These tubes were incubated in a biochemical incubator at 37.5° C. for 72 hours. The turbidity of the test tubes were observed and recorded.
smiles,measurement,setting,value
"O=C([O-])c1ccccc1.[Na+] [0.1% sodium benzoate, sodium benzoate]",Candida (detection rate),[1]; Day 1,15/20
same,pH 3.8~4.1 (vaginal secretion),[1]; Day 1,12/20
same,pH 4.2~4.5 (vaginal secretion),[1]; Day 1,6/20
same,pH <3.8 (vaginal secretion),[1]; Day 1,2/20
same,symptom alleviated/eliminated,[1]; Day 1,7/20
same,Candida (detection rate),[1]; Day 2,13/20
same,pH 3.8~4.1 (vaginal secretion),[1]; Day 2,10/20
same,pH 4.2~4.5 (vaginal secretion),[1]; Day 2,9/20
same,pH <3.8 (vaginal secretion),[1]; Day 2,1/20
same,symptom alleviated/eliminated,[1]; Day 2,9/20
same,Candida (detection rate),[1]; Day 3,9/20
same,pH 3.8~4.1 (vaginal secretion),[1]; Day 3,9/20
same,pH 4.2~4.5 (vaginal secretion),[1]; Day 3,9/20
same,pH <3.8 (vaginal secretion),[1]; Day 3,2/20
same,symptom alleviated/eliminated,[1]; Day 3,14/20
same,Candida (detection rate),[1]; Day 4,5/20
same,pH 3.8~4.1 (vaginal secretion),[1]; Day 4,10/20
same,pH 4.2~4.5 (vaginal secretion),[1]; Day 4,9/20
same,pH <3.8 (vaginal secretion),[1]; Day 4,1/20
same,symptom alleviated/eliminated,[1]; Day 4,15/20
same,Candida (detection rate),[1]; Day 5,6/20
same,pH 3.8~4.1 (vaginal secretion),[1]; Day 5,9/20
same,pH 4.2~4.5 (vaginal secretion),[1]; Day 5,10/20
same,pH <3.8 (vaginal secretion),[1]; Day 5,1/20
same,symptom alleviated/eliminated,[1]; Day 5,15/20
same,Candida (detection rate),[1]; before administration,20/20
same,pH 3.8~4.1 (vaginal secretion),[1]; before administration,10/20
same,pH 4.2~4.5 (vaginal secretion),[1]; before administration,4/20
same,pH <3.8 (vaginal secretion),[1]; before administration,6/20
same,symptom alleviated/eliminated,[1]; before administration,0/20
"C/C=C/C=C/C(=O)O [0.0125% sorbic acid, sorbic acid]",Candida (detection rate),[1]; Day 1,15/20
same,pH 3.8~4.1 (vaginal secretion),[1]; Day 1,13/20
same,pH 4.2~4.5 (vaginal secretion),[1]; Day 1,6/20
same,pH <3.8 (vaginal secretion),[1]; Day 1,1/20
same,symptom alleviated/eliminated,[1]; Day 1,6/20
same,Candida (detection rate),[1]; Day 2,15/20
same,pH 3.8~4.1 (vaginal secretion),[1]; Day 2,11/20
same,pH 4.2~4.5 (vaginal secretion),[1]; Day 2,7/20
same,pH <3.8 (vaginal secretion),[1]; Day 2,2/20
same,symptom alleviated/eliminated,[1]; Day 2,12/20
same,Candida (detection rate),[1]; Day 3,13/20
same,pH 3.8~4.1 (vaginal secretion),[1]; Day 3,10/20
same,pH 4.2~4.5 (vaginal secretion),[1]; Day 3,8/20
same,pH <3.8 (vaginal secretion),[1]; Day 3,2/20
same,symptom alleviated/eliminated,[1]; Day 3,11/20
same,Candida (detection rate),[1]; Day 4,14/20
same,pH 3.8~4.1 (vaginal secretion),[1]; Day 4,11/20
same,pH 4.2~4.5 (vaginal secretion),[1]; Day 4,8/20
same,pH <3.8 (vaginal secretion),[1]; Day 4,1/20
same,symptom alleviated/eliminated,[1]; Day 4,13/20
same,Candida (detection rate),[1]; Day 5,13/20
same,pH 3.8~4.1 (vaginal secretion),[1]; Day 5,11/20
same,pH 4.2~4.5 (vaginal secretion),[1]; Day 5,7/20
same,pH <3.8 (vaginal secretion),[1]; Day 5,2/20
same,symptom alleviated/eliminated,[1]; Day 5,12/20
same,Candida (detection rate),[1]; before administration,20/20
same,pH 3.8~4.1 (vaginal secretion),[1]; before administration,9/20
same,pH 4.2~4.5 (vaginal secretion),[1]; before administration,6/20
same,pH <3.8 (vaginal secretion),[1]; before administration,5/20
same,symptom alleviated/eliminated,[1]; before administration,0/20
"CCC(=O)[O-].[Na+] [0.125% sodium propionate, sodium propionate]","Candida growth, Strain 1",[2],+
same,"Candida growth, Strain 2",[2],+
same,"Candida growth, Strain 3",[2],+
same,"Candida growth, Strain 4",[2],+
same,"Candida growth, Strain 5",[2],−
same,"Candida growth, Strain 6",[2],+
same,"Candida growth, Strain 7",[2],+
same,"Candida growth, Strain 8",[2],+
same,"Candida growth, Strain 9",[2],−
same,"Candida growth, Strain 10",[2],+
same,"Candida growth, Strain 11",[2],−
same,Candida (detection rate),[1]; Day 1,16/20
same,pH 3.8~4.1 (vaginal secretion),[1]; Day 1,12/20
same,pH 4.2~4.5 (vaginal secretion),[1]; Day 1,5/20
same,pH <3.8 (vaginal secretion),[1]; Day 1,3/20
same,symptom alleviated/eliminated,[1]; Day 1,7/20
same,Candida (detection rate),[1]; Day 2,13/20
same,pH 3.8~4.1 (vaginal secretion),[1]; Day 2,11/20
same,pH 4.2~4.5 (vaginal secretion),[1]; Day 2,6/20
same,pH <3.8 (vaginal secretion),[1]; Day 2,3/20
same,symptom alleviated/eliminated,[1]; Day 2,9/20
same,Candida (detection rate),[1]; Day 3,10/20
same,pH 3.8~4.1 (vaginal secretion),[1]; Day 3,9/20
same,pH 4.2~4.5 (vaginal secretion),[1]; Day 3,9/20
same,pH <3.8 (vaginal secretion),[1]; Day 3,2/20
same,symptom alleviated/eliminated,[1]; Day 3,14/20
same,Candida (detection rate),[1]; Day 4,12/20
same,pH 3.8~4.1 (vaginal secretion),[1]; Day 4,10/20
same,pH 4.2~4.5 (vaginal secretion),[1]; Day 4,9/20
same,pH <3.8 (vaginal secretion),[1]; Day 4,1/20
same,symptom alleviated/eliminated,[1]; Day 4,13/20
same,Candida (detection rate),[1]; Day 5,11/20
same,pH 3.8~4.1 (vaginal secretion),[1]; Day 5,10/20
same,pH 4.2~4.5 (vaginal secretion),[1]; Day 5,8/20
same,pH <3.8 (vaginal secretion),[1]; Day 5,2/20
same,symptom alleviated/eliminated,[1]; Day 5,13/20
same,Candida (detection rate),[1]; before administration,20/20
same,pH 3.8~4.1 (vaginal secretion),[1]; before administration,9/20
same,pH 4.2~4.5 (vaginal secretion),[1]; before administration,5/20
same,pH <3.8 (vaginal secretion),[1]; before administration,6/20
same,symptom alleviated/eliminated,[1]; before administration,0/20
"CC(=O)c1c([O-])cc(C)oc1=O.[Na+] [0.005% sodium dehydroacetate, sodium dehydroacetate]","Candida growth, Strain 1",[2],+
same,"Candida growth, Strain 2",[2],+
same,"Candida growth, Strain 3",[2],+
same,"Candida growth, Strain 4",[2],+
same,"Candida growth, Strain 5",[2],−
same,"Candida growth, Strain 6",[2],+
same,"Candida growth, Strain 7",[2],+
same,"Candida growth, Strain 8",[2],+
same,"Candida growth, Strain 9",[2],−
same,"Candida growth, Strain 10",[2],+
same,"Candida growth, Strain 11",[2],+

# — patent US8765819B2, “Composition comprising benzoic acid in combination with organic acid preservatives as active ingredients and the use thereof” (priority 2009, dated 2014)
